Laboratory results from US10004701B2, “Methods and compositions for treating infection” (UNIVERSITY OF ROCHESTER, priority 2012, dated 2018).
Counter-ions that a name gives are not always drawn. Like-named read-outs stand apart in the source and are kept apart here.

Legend:
Test in all cases: AK assay 384-well format, Prestwick library screening
P. aeruginosa = format: cell-based, Pseudomonas aeruginosa; details: 50 μM final drug concentration; for fold induction at 50 µM: Pseudomonas aeruginosa, 3 h
E. coli = format: cell-based, Escherichia coli; details: 50 μM final drug concentration; for fold induction at 50 µM: Escherichia coli, 3 h
K. pneumoniae = format: cell-based, Klebsiella pneumoniae; details: 50 μM final drug concentration; for fold induction at 50 µM: Klebsiella pneumoniae, 3 h
[1] = test system: S. aureus strain USA300-0114; format: cell-based, Staphylococcus aureus; details: 50 μM final drug concentration; for fold induction at 50 µM: Staphylococcus aureus, USA300, 3 h
E. cloacae = format: cell-based, Enterobacter cloacae; details: 50 μM final drug concentration; for fold induction at 50 µM: Enterobacter cloacae, 3 h
[2] = test system: A. baumannii strain 98-37-09; format: cell-based, Acinetobacter baumannii; details: 50 μM final drug concentration; for fold induction at 50 µM: Acinetobacter baumannii, 983709, 3 h
E. faecium = format: cell-based, Enterococcus faecium; details: 50 μM final drug concentration; for fold induction at 50 µM: Enterococcus faecium, 3 h
[3] = planktonic, cutoff for positive 3-fold increase, read-out: AK-based Prestwick Library Screening Results, P. aeruginosa (fold increase in extracellular AK activity)
[4] = planktonic, cutoff for positive 3-fold increase, read-out: AK-based Prestwick Library Screening Results, E. coli (fold increase in extracellular AK activity)
[5] = planktonic, cutoff for positive 3-fold increase, read-out: AK-based Prestwick Library Screening Results, K. pneumoniae (fold increase in extracellular AK activity)
[6] = planktonic, cutoff for positive 3-fold increase, read-out: AK-based Prestwick Library Screening Results, S. aureus (fold increase in extracellular AK activity)
[7] = planktonic, cutoff for positive 3-fold increase, read-out: AK-based Prestwick Library Screening Results, E. cloacae (fold increase in extracellular AK activity)
[8] = planktonic, cutoff for positive 3-fold increase, read-out: AK-based Prestwick Library Screening Results, A. baumannii (fold increase in extracellular AK activity)
[9] = planktonic, cutoff for positive 3-fold increase, read-out: AK-based Prestwick Library Screening Results, E. faecium (fold increase in extracellular AK activity)
[10] = planktonic P. aeruginosa, positive cutoff 3-fold increase, read-out: AK-based Prestwick library screening result, P. aeruginosa (fold increase in extracellular AK activity)
[11] = planktonic E. coli, positive cutoff 3-fold increase, read-out: AK-based Prestwick library screening result, E. coli (fold increase in extracellular AK activity)
[12] = planktonic K. pneumoniae, positive cutoff 3-fold increase, read-out: AK-based Prestwick library screening result, K. pneumoniae (fold increase in extracellular AK activity)
[13] = planktonic S. aureus, positive cutoff 3-fold increase, read-out: AK-based Prestwick library screening result, S. aureus (fold increase in extracellular AK activity)
[14] = planktonic E. cloacae, positive cutoff 3-fold increase, read-out: AK-based Prestwick library screening result, E. cloacae (fold increase in extracellular AK activity)
[15] = planktonic A. baumannii, positive cutoff 3-fold increase, read-out: AK-based Prestwick library screening result, A. baumannii (fold increase in extracellular AK activity)
[16] = planktonic E. faecium, positive cutoff 3-fold increase, read-out: AK-based Prestwick library screening result, E. faecium (fold increase in extracellular AK activity)
[17] = planktonic P. aeruginosa, cutoff for positive-scoring molecules 3-fold increase, read-out: AK-based Prestwick Library Screening Results, P. aeruginosa (increase in extracellular AK activity)
[18] = planktonic E. coli, cutoff for positive-scoring molecules 3-fold increase, read-out: AK-based Prestwick Library Screening Results, E. coli (increase in extracellular AK activity)
[19] = planktonic K. pneumoniae, cutoff for positive-scoring molecules 3-fold increase, read-out: AK-based Prestwick Library Screening Results, K. pneumoniae (increase in extracellular AK activity)
[20] = planktonic S. aureus, cutoff for positive-scoring molecules 3-fold increase, read-out: AK-based Prestwick Library Screening Results, S. aureus (increase in extracellular AK activity)
[21] = planktonic E. cloacae, cutoff for positive-scoring molecules 3-fold increase, read-out: AK-based Prestwick Library Screening Results, E. cloacae (increase in extracellular AK activity)
[22] = planktonic A. baumannii, cutoff for positive-scoring molecules 3-fold increase, read-out: AK-based Prestwick Library Screening Results, A. baumannii (increase in extracellular AK activity)
[23] = planktonic E. faecium, cutoff for positive-scoring molecules 3-fold increase, read-out: AK-based Prestwick Library Screening Results, E. faecium (increase in extracellular AK activity)

CC(C)NCC(O)COc1ccc(CCOCC2CC2)cc1 (stereo not shown) [Betaxolol hydrochloride]
fold induction at 50 µM (P. aeruginosa; [3]): 1.1 | fold induction at 50 µM (E. coli; [4]): 1.2 | fold induction at 50 µM (K. pneumoniae; [5]): 1 | fold induction at 50 µM [1, 6]: 0.9 | fold induction at 50 µM (E. cloacae; [7]): 1.6 | fold induction at 50 µM [2, 8]: 1.4 | fold induction at 50 µM (E. faecium; [9]): 0.9

NCCc1cc[nH]n1 [Betazole hydrochloride]
fold induction at 50 µM (P. aeruginosa; 384-well format, cutoff for positive-scoring molecules 3-fold increase, read-out: AK-based Prestwick Library Screening Results, P. aeruginosa (increase in extracellular AK activity)): 1 | fold induction at 50 µM (E. coli; 384-well format, cutoff for positive-scoring molecules 3-fold increase, read-out: AK-based Prestwick Library Screening Results, E. coli (increase in extracellular AK activity)): 1.3 | fold induction at 50 µM (K. pneumoniae; 384-well format, cutoff for positive-scoring molecules 3-fold increase, read-out: AK-based Prestwick Library Screening Results, K. pneumoniae (increase in extracellular AK activity)): 0.9 | fold induction at 50 µM ([1]; 384-well format, cutoff for positive-scoring molecules 3-fold increase, read-out: AK-based Prestwick Library Screening Results, S. aureus (increase in extracellular AK activity)): 1.2 | fold induction at 50 µM (E. cloacae; 384-well format, cutoff for positive-scoring molecules 3-fold increase, read-out: AK-based Prestwick Library Screening Results, E. cloacae (increase in extracellular AK activity)): 1.4 | fold induction at 50 µM ([2]; 384-well format, cutoff for positive-scoring molecules 3-fold increase, read-out: AK-based Prestwick Library Screening Results, A. baumannii (increase in extracellular AK activity)): 1.2 | fold induction at 50 µM (E. faecium; 384-well format, cutoff for positive-scoring molecules 3-fold increase, read-out: AK-based Prestwick Library Screening Results, E. faecium (increase in extracellular AK activity)): 1

CC(C[N+](C)(C)C)OC(N)=O (stereo not shown) [Bethanechol chloride]
fold induction at 50 µM (P. aeruginosa; [10]): 0.7 | fold induction at 50 µM (E. coli; [11]): 1 | fold induction at 50 µM (K. pneumoniae; [12]): 0.7 | fold induction at 50 µM [1, 13]: 0.7 | fold induction at 50 µM (E. cloacae; [14]): 0.9 | fold induction at 50 µM [2, 15]: 0.8 | fold induction at 50 µM (E. faecium; [16]): 0.9

C[N+]1(C)C[C@H](O)C[C@H]1C(=O)[O-] [Betonicine]
fold induction at 50 µM (P. aeruginosa; planktonic, cutoff for positive-scoring molecules 3-fold increase, read-out: AK-based Prestwick Library Screening Results, P. aeruginosa (fold increase in extracellular AK activity)): 0.4 | fold induction at 50 µM (E. coli; planktonic, cutoff for positive-scoring molecules 3-fold increase, read-out: AK-based Prestwick Library Screening Results, E. coli (fold increase in extracellular AK activity)): 0.4 | fold induction at 50 µM (K. pneumoniae; planktonic, cutoff for positive-scoring molecules 3-fold increase, read-out: AK-based Prestwick Library Screening Results, K. pneumoniae (fold increase in extracellular AK activity)): 0.6 | fold induction at 50 µM ([1]; planktonic, cutoff for positive-scoring molecules 3-fold increase, read-out: AK-based Prestwick Library Screening Results, S. aureus (fold increase in extracellular AK activity)): 0.4 | fold induction at 50 µM (E. cloacae; planktonic, cutoff for positive-scoring molecules 3-fold increase, read-out: AK-based Prestwick Library Screening Results, E. cloacae (fold increase in extracellular AK activity)): 0.4 | fold induction at 50 µM ([2]; planktonic, cutoff for positive-scoring molecules 3-fold increase, read-out: AK-based Prestwick Library Screening Results, A. baumannii (fold increase in extracellular AK activity)): 0.4 | fold induction at 50 µM (E. faecium; planktonic, cutoff for positive-scoring molecules 3-fold increase, read-out: AK-based Prestwick Library Screening Results, E. faecium (fold increase in extracellular AK activity)): 0.9

C=C(C)[C@@H]1CC[C@]2(CO)CC[C@]3(C)[C@H](CC[C@@H]4[C@@]5(C)CC[C@H](O)C(C)(C)[C@@H]5CC[C@]43C)[C@@H]12 [Betulin]
fold induction at 50 µM (P. aeruginosa; [10]): 0.7 | fold induction at 50 µM (E. coli; [11]): 0.8 | fold induction at 50 µM (K. pneumoniae; [12]): 0.7 | fold induction at 50 µM [1, 13]: 0.3 | fold induction at 50 µM (E. cloacae; [14]): 1.3 | fold induction at 50 µM [2, 15]: 0.8 | fold induction at 50 µM (E. faecium; [16]): 0.9

C=C(C)[C@@H]1CC[C@]2(C(=O)O)CC[C@]3(C)[C@H](CC[C@@H]4[C@@]5(C)CC[C@H](O)C(C)(C)[C@@H]5CC[C@]43C)[C@@H]12 [Betulinic acid]
fold induction at 50 µM (P. aeruginosa; [17]): 0.6 | fold induction at 50 µM (E. coli; [18]): 0.6 | fold induction at 50 µM (K. pneumoniae; [19]): 0.5 | fold induction at 50 µM [1, 20]: 0.1 | fold induction at 50 µM (E. cloacae; [21]): 0.7 | fold induction at 50 µM [2, 22]: 0.6 | fold induction at 50 µM (E. faecium; [23]): 0.9

CC(C)(Oc1ccc(CCNC(=O)c2ccc(Cl)cc2)cc1)C(=O)O [Bezafibrate]
fold induction at 50 µM (P. aeruginosa; [3]): 1 | fold induction at 50 µM (E. coli; [4]): 0.9 | fold induction at 50 µM (K. pneumoniae; [5]): 0.7 | fold induction at 50 µM [1, 6]: 1.1 | fold induction at 50 µM (E. cloacae; [7]): 1.5 | fold induction at 50 µM [2, 8]: 0.8 | fold induction at 50 µM (E. faecium; [9]): 0.8

CN1CCc2cc3c(cc2[C@H]1[C@@H]1OC(=O)c2c1ccc1c2OCO1)OCO3 [Bicuculline (+)]
AK-based Prestwick Library Screening Results, P. aeruginosa (increase in extracellular AK activity) (P. aeruginosa; planktonic P. aeruginosa, […]): 0.9 | AK-based Prestwick Library Screening Results, E. coli (increase in extracellular AK activity) (E. coli; planktonic E. coli, […]): 0.8 | AK-based Prestwick Library Screening Results, K. pneumoniae (increase in extracellular AK activity) (K. pneumoniae; planktonic K. pneumoniae, […]): 0.8 | AK-based Prestwick Library Screening Results, S. aureus (increase in extracellular AK activity) ([1]; planktonic S. aureus, […]): 0.6 | AK-based Prestwick Library Screening Results, E. cloacae (increase in extracellular AK activity) (E. cloacae; planktonic E. cloacae, […]): 0.9 | AK-based Prestwick Library Screening Results, A. baumannii (increase in extracellular AK activity) ([2]; planktonic A. baumannii, […]): 0.8 | AK-based Prestwick Library Screening Results, E. faecium (increase in extracellular AK activity) (E. faecium; planktonic E. faecium, […]): 0.9

OC(CCN1CCCCC1)(c1ccccc1)C1CC2C=CC1C2 (stereo not shown) [Biperiden hydrochloride]
fold induction at 50 µM (P. aeruginosa; [17]): 0.8 | fold induction at 50 µM (E. coli; [18]): 1 | fold induction at 50 µM (K. pneumoniae; [19]): 0.8 | fold induction at 50 µM [1, 20]: 0.6 | fold induction at 50 µM (E. cloacae; [21]): 0.9 | fold induction at 50 µM [2, 22]: 0.8 | fold induction at 50 µM (E. faecium; [23]): 0.9

CC(=O)Oc1ccc(C(c2ccc(OC(C)=O)cc2)c2ccccn2)cc1 [Bisacodyl]
fold induction at 50 µM (P. aeruginosa; [17]): 0.6 | fold induction at 50 µM (E. coli; [18]): 0.6 | fold induction at 50 µM (K. pneumoniae; [19]): 0.6 | fold induction at 50 µM [1, 20]: 0.5 | fold induction at 50 µM (E. cloacae; [21]): 0.9 | fold induction at 50 µM [2, 22]: 0.8 | fold induction at 50 µM (E. faecium; [23]): 1
